Consider 22 compounds from patent publication US20210269434A1, “TRICYCLIC COMPOUNDS AS INHIBITORS OF KRAS” (Incyte Corporation, priority 2020, published 2021).

The subject of test [1] is MIA PaCa-2 (KRAS G12C) cells. The test can be described thus: Cellular pERK HTRF assay (KRAS_G12C pERK). To be noted: Homo sapiens, MIA PaCa-2, 4 hours incubation, read-out: G12C_pERK. It counts as cell-based, human. The method in brief: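 Phospho-ERK1/2 HTRF readout (665 and 620 nm) in lysed MIA PaCa-2 cells, antibodies incubated overnight at room temperature. Cells seeded the day before and treated with G12C compounds for 4 h at 37 °C; IC50 fitted to percent inhibition against log inhibitor concentration.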

For the next test, the target named is KRAS G12C (Homo sapiens, UniProt P01116, G12C). The test can be described thus: GDP-GTP exchange assay (KRAS_G12C exchange). It counts as biochemical. To be noted: bodipy-GDP loaded KRAS G12C 2.5 nM, SOS1 150 nM, GppNHp; 2 hours pre-incubation, 2 hours reaction; read-out: G12C_exchange. The procedure, abridged:
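Fluorescence exchange of bodipy-GDP for GppNHp, SOS1-driven, read at 485/520 nm; IC50 from four-parameter variable-slope fit. Both mutants used 2.5 nM final labelled protein and a 2 h compound pre-incubation. G12C reaction had 500 uM GppNHp and 150 nM SOS1 for 2 h; G12D ran 4 h.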

Sequence of KRAS G12C (P01116 1-188 isoform P01116-2 G12C): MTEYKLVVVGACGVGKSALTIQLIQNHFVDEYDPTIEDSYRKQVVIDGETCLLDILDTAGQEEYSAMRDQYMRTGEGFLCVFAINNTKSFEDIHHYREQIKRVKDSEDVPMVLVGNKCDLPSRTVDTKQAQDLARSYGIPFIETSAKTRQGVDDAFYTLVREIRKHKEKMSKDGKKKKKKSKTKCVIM

Regarding `CC#CC(=O)N1CC[C@H](n2nnc3c(N4CC(C)(N(C)C)C4)nc4c(F)c(-c5cccc(C)c5OC)c(C(F)(F)F)cc4c32)C[C@H]1CC#N` (single isomer, unassigned) [Example 245a], the IC50 (in test [1]; at KRAS G12C) was at most 100 nM throughout.

`C=CC(=O)N1CC[C@H](n2cnc3c(N4CC(N(C)C)C4)nc4c(F)c(-c5cc(O)ccc5F)c(Cl)cc4c32)C[C@H]1CC#N` [Example 55, 2-((2S,4S)-1-acryloyl-4-(8-chloro-4-(3-(dimethylamino)azetidin-1-yl)-6-fluoro-7-(2-fluoro-5-hydroxyphenyl)-1H-imidazo[4,5-c]quinolin-1-yl)piperidin-2-yl)acetonitrile]: the IC50 (in test [1]; at KRAS G12C) was at most 100 nM throughout.

In the case of `C=CC(=O)N1CCC(n2nnc3c(OC[C@@H]4CCCN4C)nc4c(F)c(-c5cccc(C)c5)c(Cl)cc4c32)C[C@H]1CC#N` (stereo partly drawn) [Example 210, 2-((2S)-1-acryloyl-4-(8-chloro-6-fluoro-4-(((S)-1-methylpyrrolidin-2-yl)methoxy)-7-(m-tolyl)-1H-[1,2,3]triazolo[4,5-c]quinolin-1-yl)piperidin-2-yl)acetonitrile], the IC50 (in test [1]; at KRAS G12C) was at most 100 nM in each case.

In the case of `C=CC(=O)N1CC[C@H](n2nnc3c(OC[C@@H]4CCCN4C)nc4c(Cl)c(-c5ccc(F)c6cccnc56)c(Cl)cc4c32)C[C@H]1CC#N` (single isomer, unassigned) [Example 276a], the IC50 (in test [1]; at KRAS G12C) was at most 100 nM throughout.

On to `C=CC(=O)N1CCC(n2cnc3c(OC[C@@H]4CCCN4C)nc4c(F)c(-c5c(C)c(Cl)cc6[nH]ncc56)c(Cl)cc4c32)CC1CC#N` (single isomer, unassigned) [Example 40a], for which the IC50 (in test [1]; on KRAS G12C) was at most 100 nM throughout.

As for `C=C(F)C(=O)N1CC[C@H](n2nnc3c(OC[C@@H]4CCCN4C)nc4c(F)c(-c5c(C)c(Cl)cc6[nH]ncc56)c(Cl)cc4c32)C[C@H]1CC#N` [Example 192, 2-((2S,4S)-4-(8-chloro-7-(6-chloro-5-methyl-1H-indazol-4-yl)-6-fluoro-4-(((S)-1-methylpyrrolidin-2-yl)methoxy)-1H-[1,2,3]triazolo[4,5-c]quinolin-1-yl)-1-(2-fluoroacryloyl)piperidin-2-yl)acetonitrile], the IC50 (in test [1]; at KRAS G12C) was at most 100 nM throughout.

Regarding `C=CC(=O)N1C[C@H](C)[C@@H](n2cnc3c(N4CC(N(C)C)C4)nc4c(F)c(-c5cc(O)cc6ccccc56)c(Cl)cc4c32)C1` (racemic) [Example 31a, 1-((trans)-3-(8-chloro-4-(3-(dimethylamino)azetidin-1-yl)-6-fluoro-7-(3-hydroxynaphthalen-1-yl)-1H-imidazo[4,5-c]quinolin-1-yl)-4-methylpyrrolidin-1-yl)prop-2-en-1-one], the IC50 (in test [1]; at KRAS G12C) was at most 100 nM each time.

With `Cc1cccc(-c2c(C)cc3c(nc(N4CC(C)(N(C)C)C4)c4nnn([C@H]5CCN(C(=O)/C=C/CN(C)C)[C@H](CC#N)C5)c43)c2F)c1Cl` [Example 257, 2-((2S,4S)-4-(7-(2-chloro-3-methylphenyl)-4-(3-(dimethylamino)-3-methylazetidin-1-yl)-6-fluoro-8-methyl-1H-[1,2,3]triazolo[4,5-c]quinolin-1-yl)-1-((E)-4-(dimethylamino)but-2-enoyl)piperidin-2-yl)acetonitrile], the IC50 (in test [1]; on KRAS G12C) was at most 100 nM in each case.

As to `COC/C=C/C(=O)N1CC[C@H](n2cnc3c(N4CC5(CCCN5C)C4)nc4c(F)c(-c5c(C)c(Cl)cc6[nH]ncc56)c(Cl)cc4c32)C[C@H]1CC#N` [Example 84a, 2-((2S,4S)-4-(8-chloro-7-(6-chloro-5-methyl-1H-indazol-4-yl)-6-fluoro-4-(5-methyl-2,5-diazaspiro[3.4]octan-2-yl)-1H-imidazo[4,5-c]quinolin-1-yl)-1-((E)-4-methoxybut-2-enoyl)piperidin-2-yl)acetonitrile], the IC50 (in test [1]; on KRAS G12C) was at most 100 nM throughout.

As for `C=CC(=O)N1CCC(n2cnc3c(OC[C@@H]4CCCN4C)nc4c(F)c(-c5cc(O)cc6ccccc56)c(Cl)cc4c32)CC1CC#N` (single isomer, unassigned) [Example 36a], the IC50 (in test [1]; on KRAS G12C) was at most 100 nM each time.

`C=CC(=O)N1CC[C@H](n2nnc3c(OC[C@@H]4CCCN4C)nc4c(Cl)c(-c5cccc6cccnc56)c(Cl)cc4c32)C[C@H]1CC#N` (single isomer, unassigned) [Example 288a]: the IC50 (in test [1]; on KRAS G12C) was at most 100 nM in each case.

Regarding `Cc1cccc(-c2c(C)cc3c(nc(N4CC(N(C)C)C4)c4nnn([C@H]5CCN(C(=O)/C=C/CF)[C@H](CC#N)C5)c43)c2F)c1C` [Example 206, 2-((2S,4S)-4-(4-(3-(dimethylamino)azetidin-1-yl)-7-(2,3-dimethylphenyl)-6-fluoro-8-methyl-1H-[1,2,3]triazolo[4,5-c]quinolin-1-yl)-1-((E)-4-fluorobut-2-enoyl)piperidin-2-yl)acetonitrile], the IC50 (in test [1]; at KRAS G12C) was at most 100 nM throughout.

As to `Cc1nccn1-c1nc2c(F)c(-c3ccccc3)c(Cl)cc2c2c1ncn2[C@H]1CCN(C(=O)/C=C/CF)[C@H](CC#N)C1` [Example 152, 2-((2S,4S)-4-(8-chloro-6-fluoro-4-(2-methyl-1H-imidazol-1-yl)-7-phenyl-1H-imidazo[4,5-c]quinolin-1-yl)-1-((E)-4-fluorobut-2-enoyl)piperidin-2-yl)acetonitrile], the IC50 (in test [1]; on KRAS G12C) was at most 100 nM throughout.

`C=CC(=O)N1CC[C@H](n2cnc3c(N4CC(N(C)C)C4)nc4c(F)c(-c5ccccc5)c(Cl)cc4c32)C[C@H]1CC#N` [Example 45, 2-((2S,4S)-1-acryloyl-4-(8-chloro-4-(3-(dimethylamino)azetidin-1-yl)-6-fluoro-7-phenyl-1H-imidazo[4,5-c]quinolin-1-yl)piperidin-2-yl)acetonitrile]: the IC50 (in test [1]; on KRAS G12C) was at most 100 nM each time.

For `CC#CC(=O)N1CC[C@H](n2nnc3c(N4CCOCC4=O)nc4c(F)c(-c5cccc(Cl)c5C)c(Cl)cc4c32)C[C@H]1CC#N` [Example 91, 2-((2S,4S)-1-(but-2-ynoyl)-4-(8-chloro-7-(3-chloro-2-methylphenyl)-6-fluoro-4-(3-oxomorpholino)-1H-[1,2,3]triazolo[4,5-c]quinolin-1-yl)piperidin-2-yl)acetonitrile], the IC50 (in test [1]; on KRAS G12C) was at most 100 nM throughout.

As to `COc1c(Cl)cccc1-c1c(C(F)(F)F)cc2c(nc(N3CC(C)(N(C)C)C3)c3nnn([C@H]4CCN(C(=O)/C=C/CN(C)C)[C@H](CC#N)C4)c32)c1F` [Example 244, 2-((2S,4S)-4-(7-(3-chloro-2-methoxyphenyl)-4-(3-(dimethylamino)-3-methylazetidin-1-yl)-6-fluoro-8-(trifluoromethyl)-1H-[1,2,3]triazolo[4,5-c]quinolin-1-yl)-1-((E)-4-(dimethylamino)but-2-enoyl)piperidin-2-yl)acetonitrile], the IC50 (in test [1]; at KRAS G12C) was at most 100 nM throughout.

Turning to `CC#CC(=O)N1CC[C@H](n2nnc3c(OC[C@@H]4CCCN4C)nc4c(Cl)c(-c5cccc(Cl)c5Cl)c(Cl)cc4c32)C[C@H]1CC#N` [Example 278, 2-((2S,4S)-1-(but-2-ynoyl)-4-(6,8-dichloro-7-(2,3-dichlorophenyl)-4-(((S)-1-methylpyrrolidin-2-yl)methoxy)-1H-[1,2,3]triazolo[4,5-c]quinolin-1-yl)piperidin-2-yl)acetonitrile], the IC50 (in test [1]; at KRAS G12C) was at most 100 nM each time.

`C=CC(=O)N1CCC(n2cnc3c(N4CC(C)(N(C)C)C4)nc4c(F)c(-c5cccc6cccc(Cl)c56)c(Cl)cc4c32)C[C@H]1CC#N` (single isomer, unassigned) [Example 212a]: the IC50 (in test [1]; at KRAS G12C) was at most 100 nM each time.

For the compound `C=CC(=O)N1CCC(n2cnc3c(-c4cc(O)cc5ccccc45)nc4c(F)c(-c5cc(O)cc6ccccc56)c(Cl)cc4c32)CC1` [Example 11, 1-(4-(8-chloro-6-fluoro-4,7-bis(3-hydroxynaphthalen-1-yl)-1H-imidazo[4,5-c]quinolin-1-yl)piperidin-1-yl)prop-2-en-1-one], the IC50 in test [1] is 100 to 1000 nM; on KRAS G12C, at most 100 nM.

For the compound `C=CC(=O)N1CC[C@H](n2cnc3c(N4CC(N(C)C)C4)nc4c(F)c(-c5cccc(F)c5Cl)c(Cl)cc4c32)C[C@H]1CC#N` [Example 58, 2-((2S,4S)-1-acryloyl-4-(8-chloro-7-(2-chloro-3-fluorophenyl)-4-(3-(dimethyl-amino)azetidin-1-yl)-6-fluoro-1H-imidazo[4,5-c]quinolin-1-yl)piperidin-2-yl)acetonitrile], the IC50 (in test [1]; at KRAS G12C) was at most 100 nM each time.

On to `C=CC(=O)N1CC[C@H](n2cnc3c(N4CC(N(C)C)C4)nc4c(F)c(-c5cccc(C)c5Cl)c(Cl)cc4c32)C[C@H]1CC#N` [Example 19, 2-((2S,4S)-1-acryloyl-4-(8-chloro-7-(2-chloro-3-methylphenyl)-4-(3-(dimethylamino)azetidin-1-yl)-6-fluoro-1H-imidazo[4,5-c]quinolin-1-yl)piperidin-2-yl)acetonitrile], for which the IC50 (in test [1]; on KRAS G12C) was at most 100 nM throughout.

With `C=CC(=O)N1CC[C@H](n2nnc3c(N4CC(N(C)C)C4)nc4c(F)c(-c5c(C)c(Cl)cc6c5cnn6C)c(Cl)cc4c32)C[C@H]1CC#N` (single isomer, unassigned) [Example 150a], the IC50 (in test [1]; at KRAS G12C) was at most 100 nM throughout.
